Laboratory results from US11471422B2, “Stealth, targeted nanoparticles (STN) for oral drug delivery” (priority 2014, dated 2022).
Where two headings read alike, the source gives them in different places. Values belong to the molecule of their own block, whether it stands above or below them.

Legend:
Conditions in all cases: in vivo
[1] = Percentage bioavailability vs time profile of Nutraceutical 1 from coated STN (FIG. 6)
[2] = Percentage cumulative bioavailability vs time profile of two antibiotics from coated STN (FIG. 4)
[3] = Percentage bioavailability vs time profile of anticancer drug from coated STN (FIG. 5)
From the text: FIG. 5: Percentage Bioavailability vs time profile of anticancer drug (docetaxel) from coated STN indicating >90% release after 9 hr against conventional oral form with <10% bioavailability

bioavailability at 6 hrs ([1]; oral, from coated STN, at 6 hrs): > 80%
bioavailability ([1]; conventional formulations): < 15%
SMILES: COC1=C(OC)C(=O)C(C/C=C(\C)CC/C=C(\C)CC/C=C(\C)CC/C=C(\C)CC/C=C(\C)CC/C=C(\C)CC/C=C(\C)CC/C=C(\C)CC/C=C(\C)CCC=C(C)C)=C(C)C1=O [Coenzyme Q 10]

bioavailability at 7 hr ([2]; po): > 100%
SMILES: CO/N=C(\C(=O)N[C@@H]1C(=O)N2C(C(=O)O)=C(CSc3nc(=O)c(=O)[nH]n3C)CS[C@H]12)c1csc(N)n1 [ceftriaxone]

bioavailability at 9 hr ([3]; oral, from coated STN, after 9 hr (printed as release)): > 90%
bioavailability ([3]; conventional oral form): < 10%
SMILES: CC(=O)O[C@@]12CO[C@@H]1C[C@H](O)[C@@]1(C)C(=O)[C@H](O)C3=C(C)[C@@H](OC(=O)[C@H](O)[C@@H](NC(=O)OC(C)(C)C)c4ccccc4)C[C@@](O)([C@@H](OC(=O)c4ccccc4)[C@H]21)C3(C)C [docetaxel]

SMILES: CC1(C)[C@H](C(=O)O)N2C(=O)C[C@H]2S1(=O)=O [sulbactam]
bioavailability at 7 hr ([2]; from coated STN, STN oral delivery, at 7 hr, read-out: Percentage cumulative bioavailability): > 100%
